Numbers after ± are expanded uncertainties.
Experiment: xn = mol fraction of the nth substance listed
Conditions: 101 kPa, Liquid

SMILES: CCCCn1cc[n+](C)c1.N#C[S-] [1-butyl-3-methylimidazolium thiocyanate] + CCCCCCCCCCO
- mass density (298.15 K, x1 = 0.0747): 843.95 ± 0.36 kg/m3
- viscosity (298.15 K, x1 = 0.0747): 13.07 ± 0.36 mPa·s
- mass density (298.15 K, x1 = 0.1621): 864.67 ± 0.36 kg/m3
- viscosity (298.15 K, x1 = 0.1621): 15.5 ± 0.42 mPa·s
- mass density (298.15 K, x1 = 0.2537): 886.57 ± 0.37 kg/m3
- viscosity (298.15 K, x1 = 0.2537): 18.67 ± 0.5 mPa·s
- mass density (298.15 K, x1 = 0.3512): 910.03 ± 0.39 kg/m3
- viscosity (298.15 K, x1 = 0.3512): 22.48 ± 0.6 mPa·s
- mass density (298.15 K, x1 = 0.4924): 944.3 ± 0.43 kg/m3
- viscosity (298.15 K, x1 = 0.4924): 28.36 ± 0.75 mPa·s
- mass density (298.15 K, x1 = 0.5922): 968.81 ± 0.47 kg/m3
- viscosity (298.15 K, x1 = 0.5922): 32.87 ± 0.87 mPa·s
- mass density (298.15 K, x1 = 0.6659): 987.05 ± 0.52 kg/m3
- viscosity (298.15 K, x1 = 0.6659): 36.09 ± 0.96 mPa·s
- mass density (298.15 K, x1 = 0.7576): 1009.83 ± 0.62 kg/m3
- viscosity (298.15 K, x1 = 0.7576): 40 ± 1.1 mPa·s
- mass density (298.15 K, x1 = 0.8692): 1037.62 ± 0.8 kg/m3
- viscosity (298.15 K, x1 = 0.8692): 45.01 ± 1.2 mPa·s
- mass density (298.15 K, x1 = 0.9587): 1059.8 ± 0.98 kg/m3
- viscosity (298.15 K, x1 = 0.9587): 49.31 ± 1.3 mPa·s
- mass density (298.15 K, x1 = 1): 1069.79 ± 1 kg/m3
- viscosity (298.15 K, x1 = 1): 51.74 ± 0.55 mPa·s
- mass density (308.15 K, x1 = 0.0747): 837.19 ± 0.36 kg/m3
- viscosity (308.15 K, x1 = 0.0747): 9.168 ± 0.26 mPa·s
- mass density (308.15 K, x1 = 0.1621): 857.99 ± 0.37 kg/m3
- viscosity (308.15 K, x1 = 0.1621): 10.96 ± 0.3 mPa·s
- mass density (308.15 K, x1 = 0.2537): 879.95 ± 0.37 kg/m3
- viscosity (308.15 K, x1 = 0.2537): 13.08 ± 0.36 mPa·s
- mass density (308.15 K, x1 = 0.3512): 903.51 ± 0.39 kg/m3
- viscosity (308.15 K, x1 = 0.3512): 15.62 ± 0.42 mPa·s
- mass density (308.15 K, x1 = 0.4924): 938.02 ± 0.43 kg/m3
- viscosity (308.15 K, x1 = 0.4924): 19.52 ± 0.53 mPa·s
- mass density (308.15 K, x1 = 0.5922): 962.63 ± 0.48 kg/m3
- viscosity (308.15 K, x1 = 0.5922): 22.29 ± 0.6 mPa·s
- mass density (308.15 K, x1 = 0.6659): 981.01 ± 0.52 kg/m3
- viscosity (308.15 K, x1 = 0.6659): 24.5 ± 0.66 mPa·s
- mass density (308.15 K, x1 = 0.7576): 1003.83 ± 0.61 kg/m3
- viscosity (308.15 K, x1 = 0.7576): 27.12 ± 0.74 mPa·s
- mass density (308.15 K, x1 = 0.8692): 1031.69 ± 0.79 kg/m3
- viscosity (308.15 K, x1 = 0.8692): 30.46 ± 0.83 mPa·s
- mass density (308.15 K, x1 = 0.9587): 1053.86 ± 0.97 kg/m3
- viscosity (308.15 K, x1 = 0.9587): 33.3 ± 0.92 mPa·s
- mass density (308.15 K, x1 = 1): 1063.89 ± 1 kg/m3
- viscosity (308.15 K, x1 = 1): 34.87 ± 0.96 mPa·s
- mass density (318.15 K, x1 = 0.0747): 830.4 ± 0.37 kg/m3
- viscosity (318.15 K, x1 = 0.0747): 6.582 ± 0.2 mPa·s
- mass density (318.15 K, x1 = 0.1621): 851.35 ± 0.37 kg/m3
- viscosity (318.15 K, x1 = 0.1621): 7.964 ± 0.23 mPa·s
- mass density (318.15 K, x1 = 0.2537): 873.42 ± 0.38 kg/m3
- viscosity (318.15 K, x1 = 0.2537): 9.541 ± 0.27 mPa·s
- mass density (318.15 K, x1 = 0.3512): 897.08 ± 0.39 kg/m3
- viscosity (318.15 K, x1 = 0.3512): 11.39 ± 0.32 mPa·s
- mass density (318.15 K, x1 = 0.4924): 931.78 ± 0.43 kg/m3
- viscosity (318.15 K, x1 = 0.4924): 14.06 ± 0.39 mPa·s
- mass density (318.15 K, x1 = 0.5922): 956.5 ± 0.48 kg/m3
- viscosity (318.15 K, x1 = 0.5922): 16.04 ± 0.44 mPa·s
- mass density (318.15 K, x1 = 0.6659): 974.94 ± 0.52 kg/m3
- viscosity (318.15 K, x1 = 0.6659): 17.59 ± 0.48 mPa·s
- mass density (318.15 K, x1 = 0.7576): 997.87 ± 0.6 kg/m3
- viscosity (318.15 K, x1 = 0.7576): 19.4 ± 0.53 mPa·s
- mass density (318.15 K, x1 = 0.8692): 1025.8 ± 0.78 kg/m3
- viscosity (318.15 K, x1 = 0.8692): 21.56 ± 0.6 mPa·s
- mass density (318.15 K, x1 = 0.9587): 1048.02 ± 0.95 kg/m3
- viscosity (318.15 K, x1 = 0.9587): 23.3 ± 0.65 mPa·s
- mass density (318.15 K, x1 = 1): 1058.02 ± 1 kg/m3
- viscosity (318.15 K, x1 = 1): 24.19 ± 0.68 mPa·s
- mass density (328.15 K, x1 = 0.0747): 823.59 ± 0.37 kg/m3
- viscosity (328.15 K, x1 = 0.0747): 4.88 ± 0.15 mPa·s
- mass density (328.15 K, x1 = 0.1621): 844.7 ± 0.37 kg/m3
- viscosity (328.15 K, x1 = 0.1621): 5.959 ± 0.18 mPa·s
- mass density (328.15 K, x1 = 0.2537): 866.89 ± 0.38 kg/m3
- viscosity (328.15 K, x1 = 0.2537): 7.162 ± 0.21 mPa·s
- mass density (328.15 K, x1 = 0.3512): 890.79 ± 0.39 kg/m3
- viscosity (328.15 K, x1 = 0.3512): 8.553 ± 0.25 mPa·s
- mass density (328.15 K, x1 = 0.4924): 925.54 ± 0.43 kg/m3
- viscosity (328.15 K, x1 = 0.4924): 10.62 ± 0.3 mPa·s
- mass density (328.15 K, x1 = 0.5922): 950.4 ± 0.48 kg/m3
- viscosity (328.15 K, x1 = 0.5922): 11.98 ± 0.34 mPa·s
- mass density (328.15 K, x1 = 0.6659): 968.92 ± 0.52 kg/m3
- viscosity (328.15 K, x1 = 0.6659): 12.98 ± 0.36 mPa·s
- mass density (328.15 K, x1 = 0.7576): 991.96 ± 0.6 kg/m3
- viscosity (328.15 K, x1 = 0.7576): 14.04 ± 0.39 mPa·s
- mass density (328.15 K, x1 = 0.8692): 1019.98 ± 0.77 kg/m3
- viscosity (328.15 K, x1 = 0.8692): 15.15 ± 0.43 mPa·s
- mass density (328.15 K, x1 = 0.9587): 1042.2 ± 0.94 kg/m3
- viscosity (328.15 K, x1 = 0.9587): 16.1 ± 0.46 mPa·s
- mass density (328.15 K, x1 = 1): 1052.19 ± 1 kg/m3
- viscosity (328.15 K, x1 = 1): 16.7 ± 0.48 mPa·s
- mass density (338.15 K, x1 = 0.0747): 816.7 ± 0.37 kg/m3
- viscosity (338.15 K, x1 = 0.0747): 3.741 ± 0.12 mPa·s
- mass density (338.15 K, x1 = 0.1621): 838 ± 0.38 kg/m3
- viscosity (338.15 K, x1 = 0.1621): 4.567 ± 0.14 mPa·s
- mass density (338.15 K, x1 = 0.2537): 860.36 ± 0.38 kg/m3
- viscosity (338.15 K, x1 = 0.2537): 5.526 ± 0.17 mPa·s
- mass density (338.15 K, x1 = 0.3512): 884.37 ± 0.4 kg/m3
- viscosity (338.15 K, x1 = 0.3512): 6.586 ± 0.2 mPa·s
- mass density (338.15 K, x1 = 0.4924): 919.35 ± 0.43 kg/m3
- viscosity (338.15 K, x1 = 0.4924): 8.183 ± 0.24 mPa·s
- mass density (338.15 K, x1 = 0.5922): 944.32 ± 0.48 kg/m3
- viscosity (338.15 K, x1 = 0.5922): 9.243 ± 0.27 mPa·s
- mass density (338.15 K, x1 = 0.6659): 962.91 ± 0.52 kg/m3
- viscosity (338.15 K, x1 = 0.6659): 9.998 ± 0.29 mPa·s
- mass density (338.15 K, x1 = 0.7576): 986.05 ± 0.6 kg/m3
- viscosity (338.15 K, x1 = 0.7576): 10.76 ± 0.31 mPa·s
- mass density (338.15 K, x1 = 0.8692): 1014.18 ± 0.76 kg/m3
- viscosity (338.15 K, x1 = 0.8692): 11.46 ± 0.33 mPa·s
- mass density (338.15 K, x1 = 0.9587): 1036.43 ± 0.93 kg/m3
- viscosity (338.15 K, x1 = 0.9587): 12.18 ± 0.35 mPa·s
- mass density (338.15 K, x1 = 1): 1046.43 ± 0.98 kg/m3
- viscosity (338.15 K, x1 = 1): 12.73 ± 0.37 mPa·s
- mass density (348.15 K, x1 = 0.0747): 809.76 ± 0.38 kg/m3
- viscosity (348.15 K, x1 = 0.0747): 2.909 ± 0.1 mPa·s
- mass density (348.15 K, x1 = 0.1621): 831.23 ± 0.38 kg/m3
- viscosity (348.15 K, x1 = 0.1621): 3.578 ± 0.12 mPa·s
- mass density (348.15 K, x1 = 0.2537): 853.79 ± 0.39 kg/m3
- viscosity (348.15 K, x1 = 0.2537): 4.411 ± 0.14 mPa·s
- mass density (348.15 K, x1 = 0.3512): 877.97 ± 0.4 kg/m3
- viscosity (348.15 K, x1 = 0.3512): 5.195 ± 0.16 mPa·s
- mass density (348.15 K, x1 = 0.4924): 913.13 ± 0.44 kg/m3
- viscosity (348.15 K, x1 = 0.4924): 6.455 ± 0.19 mPa·s
- mass density (348.15 K, x1 = 0.5922): 938.26 ± 0.48 kg/m3
- viscosity (348.15 K, x1 = 0.5922): 7.278 ± 0.22 mPa·s
- mass density (348.15 K, x1 = 0.6659): 956.95 ± 0.52 kg/m3
- viscosity (348.15 K, x1 = 0.6659): 7.875 ± 0.23 mPa·s
- mass density (348.15 K, x1 = 0.7576): 980.21 ± 0.6 kg/m3
- viscosity (348.15 K, x1 = 0.7576): 8.487 ± 0.25 mPa·s
- mass density (348.15 K, x1 = 0.8692): 1008.43 ± 0.75 kg/m3
- viscosity (348.15 K, x1 = 0.8692): 9.047 ± 0.27 mPa·s
- mass density (348.15 K, x1 = 0.9587): 1030.7 ± 0.91 kg/m3
- viscosity (348.15 K, x1 = 0.9587): 9.624 ± 0.28 mPa·s
- mass density (348.15 K, x1 = 1): 1040.7 ± 0.97 kg/m3
- viscosity (348.15 K, x1 = 1): 9.98 ± 0.3 mPa·s

Source: the NIST ThermoML archive (doi:10.1021/je901043q)
